Assay results from patent publication US20250152574A1 (BIOGEN MA INC., priority 2022, published 2025).

The compounds below were run against T1, EBP (Homo sapiens, UniProt Q15125) (assay: EBP Functional Assay (EBP immunoaffinity LC-MS assay)). Conditions: HEK293T cells as source of EBP enzyme; substrate zymosterol-d5, 37° C. for 4 h; percent conversion to dehydrolathosterol-d5 by LC-APCI MRM MS.
T1 construct: HEK293T cells were utilized as the source of EBP enzyme; endogenous in cells; host or cells: HEK293T
Format: biochemical
Procedure: The EBP immunoaffinity (IA) LC-MS assay measures the potency of small molecule inhibitors of EBP by quantifying their concentration-dependent changes in the enzyme's substrate and product using liquid chromatography atmospheric pressure chemical ionization multiple reaction monitoring mass spectrometry (LC-APCI MRM MS). HEK293T cells were utilized as the source of EBP enzyme. The enzyme was incubated with the small molecule inhibitors at variable concentrations for 30 min. Deuterated form of EBP substrate, zymosterol-d5 (Avanti Polar Lipids, Cat #700068P-1 mg), was then added and the plate was incubated at 37° C. for 4 h. Finally, the sterol isomers were extracted and injected to LC-APCI MRM MS. MRM transition used for the quantification for both zymosterol and […] (substrate and product of EBP enzymatic reaction, respectively) is 372.3-203.2, CE 30 and DP 80 in positive ion mode. Percent conversion of the zymosterol-d5 to dehydrolathosterol-d5 was used to derive IC50 curves. Tasin-1 (1′-[(4-Methoxyphenyl)sulfonyl]-4-methyl-1,4′-bipiperidine, CAS 792927-06-1) was used as the reference small molecule inhibitor.
Percent conversion versus the compound concentration data were fit to the following 4-parameter logistic model to generate IC50 curves: […]

T1 sequence (Q15125 whole entry): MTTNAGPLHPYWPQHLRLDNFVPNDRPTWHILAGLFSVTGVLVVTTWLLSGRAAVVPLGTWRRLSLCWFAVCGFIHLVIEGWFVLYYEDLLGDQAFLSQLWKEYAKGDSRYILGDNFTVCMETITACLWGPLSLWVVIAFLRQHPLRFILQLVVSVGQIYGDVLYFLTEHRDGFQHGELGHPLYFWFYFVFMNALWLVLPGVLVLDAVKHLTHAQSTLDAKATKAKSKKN

SMILES | IC50
O=S(=O)(c1ccc(OC(F)F)cc1)N1CCC2(CCC(N3C[C@@H]4C[C@H]3CO4)C2)CC1 (stereo partly drawn) [Example 89, (1S,4S)-5-(8-((4-(difluoromethoxy)phenyl)sulfonyl)-8-azaspiro[4.5]decan-2-yl)-2-oxa-5-azabicyclo[2.2.1]heptane] | 100 to 250 nM
N#Cc1cccc(S(=O)(=O)N2CCC3(CCC(N4CC5(COC5)C4)C3)CC2)c1F (centres unmarked) [Example 104] | < 100 nM
COc1ncc(C)cc1S(=O)(=O)N1CCC2(CCC(NC3(C)COC3)C2)CC1 (centres unmarked) [Example 41] | 100 to 250 nM
COc1ncc(Cl)cc1S(=O)(=O)N1CCC2(CC1)CC(N1CC3(COC3)C1)CO2 (centres unmarked) [Example 62, 8-((5-Chloro-2-methoxypyridin-3-yl)sulfonyl)-3-(2-oxa-6-azaspiro[3.3]heptan-6-yl)-1-oxa-8-azaspiro[4.5]decane] | 250 to 1500 nM
Cc1nc(C(F)(F)F)ccc1S(=O)(=O)N1CCC2(CC1)CC(N1CC(O)C1)C2 [Example 95, 1-(7-((2-methyl-6-(trifluoromethyl)pyridin-3-yl)sulfonyl)-7-azaspiro[3.5]nonan-2-yl)azetidin-3-ol] | < 100 nM
N#Cc1cc(F)cc(S(=O)(=O)N2CCC3(CC2)CC(NCC2CCOCC2)CO3)c1 (centres unmarked) [Example 98, 3-fluoro-5-((3-(((tetrahydro-2H-pyran-4-yl)methyl)amino)-1-oxa-8-azaspiro[4.5]decan-8-yl)sulfonyl)benzonitrile] | 250 to 1500 nM
COc1ncc(Cl)cc1S(=O)(=O)N1CCC2(CC1)C[C@@H](N1CC3(COC3)C1)CO2 (single isomer, unassigned) [Example 63a] | < 100 nM
O=S(=O)(c1ccc(OC2CC2)cc1)N1CCC2(CCC(N3CC4(COC4)C3)C2)CC1 (centres unmarked) [Example 134, 6-(8-((4-cyclopropoxyphenyl)sulfonyl)-8-azaspiro[4.5]decan-2-yl)-2-oxa-6-azaspiro[3.3]heptane] | 250 to 1500 nM
COCCNC1COC2(CCN(S(=O)(=O)c3cc(C#N)ccc3F)CC2)C1 (centres unmarked) [Example 44, 4-Fluoro-3-((3-((2-methoxyethyl)amino)-1-oxa-8-azaspiro[4.5]decan-8-yl)sulfonyl)benzonitrile] | 250 to 1500 nM
Cc1ccc(S(=O)(=O)N2CCC3(CCC(N4CC5(COC5)C4)C3)CC2)cc1C#N (centres unmarked) [Example 128, 5-((2-(2-oxa-6-azaspiro[3.3]heptan-6-yl)-8-azaspiro[4.5]decan-8-yl)sulfonyl)-2-methylbenzonitrile] | < 100 nM
O=S(=O)(c1ccc(F)cc1)N1CCC2(CCC(N3CC4(COC4)C3)C2)CC1 (centres unmarked) [Example 12] | < 100 nM
COc1ccc(S(=O)(=O)N2CCC3(CCC(N4CC5(COC5)C4)C3)CC2)cn1 (centres unmarked) [Example 110] | 100 to 250 nM
Cc1nc(Cl)ccc1S(=O)(=O)N1CCC2(CC1)CC(N1C[C@H]3C[C@@H]1CO3)C2 [Example 94, (1R,4R)-5-(7-((6-chloro-2-methylpyridin-3-yl)sulfonyl)-7-azaspiro[3.5]nonan-2-yl)-2-oxa-5-azabicyclo[2.2.1]heptane] | < 100 nM
O=S(=O)(c1ccc(F)cc1)N1CCC2(CC1)CC(N1CC3(COC3)C1)CO2 (centres unmarked) [Example 8] | 250 to 1500 nM
CCOc1ccc(S(=O)(=O)N2CCC3(CCC(N4CC5(COC5)C4)C3)CC2)cc1 (centres unmarked) [Example 108] | 250 to 1500 nM
COCCN(C)C1COC2(CCN(S(=O)(=O)c3cc(C4CC4)nn3C)CC2)C1 (centres unmarked) [Example 60, 8-((3-Cyclopropyl-1-methyl-1H-pyrazol-5-yl)sulfonyl)-N-(2-methoxyethyl)-N-methyl-1-oxa-8-azaspiro[4.5]decan-3-amine] | 250 to 1500 nM
COCCN(C)C1CCC2(CCN(S(=O)(=O)c3ccc(OC)nc3C)CC2)C1 (centres unmarked) [Example 100, 8-((6-methoxy-2-methylpyridin-3-yl)sulfonyl)-N-(2-methoxyethyl)-N-methyl-8-azaspiro[4.5]decan-2-amine] | < 100 nM
COc1ncc(C)cc1S(=O)(=O)N1CCC2(CCC(NC3(C)CCOC3)C2)CC1 (centres unmarked) [Example 42] | < 100 nM
N#Cc1ccc(F)c(S(=O)(=O)N2CCC3(CC2)CC(N2C[C@H]4C[C@@H]2CO4)CO3)c1 (stereo partly drawn) [Example 45, 3-((3-((1R,4R)-2-oxa-5-azabicyclo[2.2.1]heptan-5-yl)-1-oxa-8-azaspiro[4.5]decan-8-yl)sulfonyl)-4-fluorobenzonitrile] | 250 to 1500 nM
COc1ccc(S(=O)(=O)N2CCC3(CCC(N4CC5(COC5)C4)C3)CC2)cc1F (centres unmarked) [Example 10] | 100 to 250 nM
Cc1cc(S(=O)(=O)N2CCC3(CC2)C[C@H](N2CC[C@@]4(CCOC4)C2)CO3)n(C)n1 (single isomer, unassigned) [Example 72a] | 100 to 250 nM

SMILES | IC50
N#Cc1cc(F)cc(S(=O)(=O)N2CCC3(CC[C@@H](N4CC5(COC5)C4)C3)CC2)c1 (single isomer, unassigned) [Example 85a] | 100 to 250 nM
Cc1cc(OC(F)(F)F)ccc1S(=O)(=O)N1CCC2(CC1)CC(N1CCOCC1)CO2 (centres unmarked) [Example 54, 8-((2-Methyl-4-(trifluoromethoxy)phenyl)sulfonyl)-3-morpholino-1-oxa-8-azaspiro[4.5]decane] | 250 to 1500 nM
CC1(O)CCN([C@@H]2COC3(CCN(S(=O)(=O)c4cc(C#N)ccc4F)CC3)C2)CC1 (single isomer, unassigned) [Example 141] | 250 to 1500 nM
Cc1cc(F)c(S(=O)(=O)N2CCC3(CC2)CC(N2CCOCC2)CO3)c(F)c1 (centres unmarked) [Example 16] | 250 to 1500 nM
COCCN(C)C1CCC2(CCN(S(=O)(=O)c3cc(C)cnc3OC)CC2)C1 (centres unmarked) [Example 40] | 100 to 250 nM
O=S(=O)(c1ccc(OC(F)F)cc1)N1CCC2(CC[C@H](N3C[C@@H]4C[C@H]3CO4)C2)CC1 (single isomer, unassigned) [Example 90b] | < 100 nM
Cc1cc(C(F)(F)F)ccc1S(=O)(=O)N1CCC2(CC1)CC(N1CCOCC1)CO2 (centres unmarked) [Example 17, 8-((2-Methyl-4-(trifluoromethyl)phenyl)sulfonyl)-3-morpholino-1-oxa-8-azaspiro[4.5]decane] | 250 to 1500 nM
COCCN(C)C1COC2(CCN(S(=O)(=O)c3cc(C)cnc3OC)CC2)C1 (centres unmarked) [Example 67, 8-((2-Methoxy-5-methylpyridin-3-yl)sulfonyl)-N-(2-methoxyethyl)-N-methyl-1-oxa-8-azaspiro[4.5]decan-3-amine] | 250 to 1500 nM
COc1cc(S(=O)(=O)N2CCC3(CCC(N4CC5(COC5)C4)C3)CC2)c(F)cn1 (centres unmarked) [Example 113] | < 100 nM
Cc1nc(OC(F)F)ccc1S(=O)(=O)N1CCC2(CC1)CC(N1CC3(COC3)C1)C2 [Example 121, 6-(7-((6-(difluoromethoxy)-2-methylpyridin-3-yl)sulfonyl)-7-azaspiro[3.5]nonan-2-yl)-2-oxa-6-azaspiro[3.3]heptane] | < 100 nM
COC1CN(C2COC3(CCN(S(=O)(=O)c4cc(C5CC5)nn4C)CC3)C2)C1 (centres unmarked) [Example 58, 8-((3-Cyclopropyl-1-methyl-1H-pyrazol-5-yl)sulfonyl)-3-(3-methoxyazetidin-1-yl)-1-oxa-8-azaspiro[4.5]decane] | 250 to 1500 nM
Cn1nc(C2CC2)cc1S(=O)(=O)N1CCC2(CC1)C[C@H](N1CC3(COC3)C1)CO2 (single isomer, unassigned) [Example 57b] | 250 to 1500 nM
O=S(=O)(c1cc2cccnc2cc1F)N1CCC2(CCC(N3CC4(COC4)C3)C2)CC1 (centres unmarked) [Example 102, 6-(8-((7-fluoroquinolin-6-yl)sulfonyl)-8-azaspiro[4.5]decan-2-yl)-2-oxa-6-azaspiro[3.3]heptane] | 100 to 250 nM
O=S(=O)(c1ccc(OC(F)F)cc1)N1CCC2(CC[C@@H](N3C[C@@H]4C[C@H]3CO4)C2)CC1 (single isomer, unassigned) [Example 90a] | 100 to 250 nM
Cc1cc(S(=O)(=O)N2CCC3(CC2)CC(N2CC4(COC4)C2)C3)n(C)n1 [Example 92, 6-(7-((1,3-dimethyl-1H-pyrazol-5-yl)sulfonyl)-7-azaspiro[3.5]nonan-2-yl)-2-oxa-6-azaspiro[3.3]heptane] | 100 to 250 nM
Cn1nc(C2CC2)cc1S(=O)(=O)N1CCC2(CC1)CC(N1CC3(COC3)C1)CO2 (centres unmarked) [Example 56, 8-((3-Cyclopropyl-1-methyl-1H-pyrazol-5-yl)sulfonyl)-3-(2-oxa-6-azaspiro[3.3]heptan-6-yl)-1-oxa-8-azaspiro[4.5]decane] | 100 to 250 nM
Cn1nc(C(F)(F)F)cc1S(=O)(=O)N1CCC2(CC1)CC(N1CCOCC1)CO2 (single isomer, unassigned) [Example 7, (R)- or (S)-8-((1-methyl-3-(trifluoromethyl)-1H-pyrazol-5-yl)sulfonyl)-3-morpholino-1-oxa-8-azaspiro[4.5]decane] | 250 to 1500 nM
O=S(=O)(c1cc(F)cc(F)c1)N1CCC2(CC1)C[C@H](N1CC3(COC3)C1)CO2 (single isomer, unassigned) [Example 119a] | < 100 nM
O=S(=O)(c1ccc(OC(F)F)cc1)N1CCC2(CC1)CC(N1CC3(CCOC3)C1)CO2 (centres unmarked) [Example 69, 8-((4-(Difluoromethoxy)phenyl)sulfonyl)-3-(6-oxa-2-azaspiro[3.4]octan-2-yl)-1-oxa-8-azaspiro[4.5]decane] | 250 to 1500 nM
CC(C)Oc1ccc(S(=O)(=O)N2CCC3(CCC(N4CC5(COC5)C4)C3)CC2)cn1 (centres unmarked) [Example 130, 6-(8-((6-isopropoxypyridin-3-yl)sulfonyl)-8-azaspiro[4.5]decan-2-yl)-2-oxa-6-azaspiro[3.3]heptane] | 100 to 250 nM
